Data taken from US20200121747A1, “COMPOSITION FOR PREVENTING OR TREATING ARTHRITIS COMPRISING HYDROQUINOIC ACID” (PUKYONG NATIONAL UNIVERSITY INDUSTRY-UNIVERSITY COOPERATION …, priority 2018, published 2020).

Assay: Body weight change in rheumatoid arthritis (CIA) mice
Type: in vivo, DBA/1J mice
Settings: arthritis mice treated with 10 mg and 20 mg of SHQA; measured weekly for 7 weeks; FIG. 4
Description: Eight weeks old male DBA/1J mice (Central Lab Animal Inc., Seoul, Korea) were raised for 1 week in an environment maintaining temperature (25±2° C.), humidity (55%) and 12 hour light and dark cycle. All experiments were carried out in accordance with the guidelines of the Korean National Institutes of Health Guide for the Care and Use of Laboratory Animals, and the animal testing procedure was approved by the Animal Ethics Committee of Pukyong National University (2015-12). Rheumatoid arthritis was induced in male DBA/1J mice. Type II collagen was emulsified (CFA; 2 mg/mL) in the same volume of complete Freund's adjuvant. On day 0, 100 μg of […] was injected intradermally into the lower tail portion of the DBA/1J mice to immunize. After 21 days, 100 μg of CII (IFA; 2 mg/mL) emulsified in the same volume of incomplete Freund's adjuvant in the lower tail portion of the mice was boosted by intradermal injection. On day 42, all mice were anesthetized with ether and sacrificed. Blood (plasma sample), spleen, liver and joint tissues were immediately removed and stored at −80° C. […]
For the control group without treatment, the arthritis animal group (CIA treatment group), and the treated group in which arthritis experimental animals were treated with 10 mg and 20 mg of SHQA, their body weights were measured weekly for 7 weeks. […]

CC(C)=CCC/C(=C/CC/C(C)=C/CC/C(C)=C/Cc1cc(O)cc(C)c1O)C(=O)O [SHQA, sargahydroquinoic acid]
change in body weight: no significant change in body weight
